Where two headings read alike, the source gives them in different places.
Columns and labels:
Assay type in all cases: biochemical
AKT = AKT (Homo sapiens, UniProt P31749); test: RBC HotSpot kinase assay (33P-ATP, P81 filter-binding), AKT; conditions: read-out: AKT IC50
Procedure, shortened: (§1)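 Compounds were run as single 10-point titrations to give IC50 values in nM. Each kinase was mixed with substrate and cofactors in 20 mM Hepes pH 7.5 reaction buffer with 1% DMSO, then exposed to compound for 20 min. 33P-ATP was added for a 2 h room-temperature reaction, with activity measured by P81 filter binding.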

LATS2 = molecular target: T1, LATS2 (Homo sapiens, UniProt Q9NRM7); test: RBC HotSpot kinase assay (33P-ATP, P81 filter-binding), LATS2; conditions: read-out: LATS2 IC50
T1 sequence (Q9NRM7 1-1088): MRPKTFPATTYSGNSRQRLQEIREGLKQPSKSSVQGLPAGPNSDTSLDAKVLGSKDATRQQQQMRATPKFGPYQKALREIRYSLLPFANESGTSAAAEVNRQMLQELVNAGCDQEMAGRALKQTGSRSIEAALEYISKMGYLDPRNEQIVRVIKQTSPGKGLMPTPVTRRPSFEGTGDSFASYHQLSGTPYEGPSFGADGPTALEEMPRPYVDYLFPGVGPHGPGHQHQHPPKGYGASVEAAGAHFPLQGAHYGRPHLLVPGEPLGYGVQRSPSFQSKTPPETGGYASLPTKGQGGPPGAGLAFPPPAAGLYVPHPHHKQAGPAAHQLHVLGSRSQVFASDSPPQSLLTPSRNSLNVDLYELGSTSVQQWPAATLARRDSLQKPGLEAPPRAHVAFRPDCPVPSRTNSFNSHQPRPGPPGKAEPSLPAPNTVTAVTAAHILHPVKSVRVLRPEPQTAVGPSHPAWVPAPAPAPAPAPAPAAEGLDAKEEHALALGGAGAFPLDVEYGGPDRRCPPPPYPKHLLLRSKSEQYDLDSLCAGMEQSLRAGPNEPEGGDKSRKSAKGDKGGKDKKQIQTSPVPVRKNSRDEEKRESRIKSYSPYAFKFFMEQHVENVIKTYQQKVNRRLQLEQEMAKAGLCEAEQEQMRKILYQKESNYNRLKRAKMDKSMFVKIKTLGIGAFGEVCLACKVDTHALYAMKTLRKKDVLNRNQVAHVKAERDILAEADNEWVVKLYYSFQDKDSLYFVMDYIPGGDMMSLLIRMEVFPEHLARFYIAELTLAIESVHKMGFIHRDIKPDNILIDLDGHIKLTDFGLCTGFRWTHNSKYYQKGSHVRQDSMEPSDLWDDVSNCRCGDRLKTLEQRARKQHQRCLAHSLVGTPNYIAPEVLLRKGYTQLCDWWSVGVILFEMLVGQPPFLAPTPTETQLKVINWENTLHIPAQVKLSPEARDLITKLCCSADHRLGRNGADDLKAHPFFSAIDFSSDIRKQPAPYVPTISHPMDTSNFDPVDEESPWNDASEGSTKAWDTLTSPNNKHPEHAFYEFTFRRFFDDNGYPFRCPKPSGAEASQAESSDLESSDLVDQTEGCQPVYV
Procedure, shortened: as §1

LATS1 = molecular target: T2, LATS1 (Homo sapiens, UniProt O95835); test: RBC HotSpot kinase assay (33P-ATP, P81 filter-binding), LATS1; conditions: read-out: LATS1 IC50
T2 sequence (O95835 1-1130): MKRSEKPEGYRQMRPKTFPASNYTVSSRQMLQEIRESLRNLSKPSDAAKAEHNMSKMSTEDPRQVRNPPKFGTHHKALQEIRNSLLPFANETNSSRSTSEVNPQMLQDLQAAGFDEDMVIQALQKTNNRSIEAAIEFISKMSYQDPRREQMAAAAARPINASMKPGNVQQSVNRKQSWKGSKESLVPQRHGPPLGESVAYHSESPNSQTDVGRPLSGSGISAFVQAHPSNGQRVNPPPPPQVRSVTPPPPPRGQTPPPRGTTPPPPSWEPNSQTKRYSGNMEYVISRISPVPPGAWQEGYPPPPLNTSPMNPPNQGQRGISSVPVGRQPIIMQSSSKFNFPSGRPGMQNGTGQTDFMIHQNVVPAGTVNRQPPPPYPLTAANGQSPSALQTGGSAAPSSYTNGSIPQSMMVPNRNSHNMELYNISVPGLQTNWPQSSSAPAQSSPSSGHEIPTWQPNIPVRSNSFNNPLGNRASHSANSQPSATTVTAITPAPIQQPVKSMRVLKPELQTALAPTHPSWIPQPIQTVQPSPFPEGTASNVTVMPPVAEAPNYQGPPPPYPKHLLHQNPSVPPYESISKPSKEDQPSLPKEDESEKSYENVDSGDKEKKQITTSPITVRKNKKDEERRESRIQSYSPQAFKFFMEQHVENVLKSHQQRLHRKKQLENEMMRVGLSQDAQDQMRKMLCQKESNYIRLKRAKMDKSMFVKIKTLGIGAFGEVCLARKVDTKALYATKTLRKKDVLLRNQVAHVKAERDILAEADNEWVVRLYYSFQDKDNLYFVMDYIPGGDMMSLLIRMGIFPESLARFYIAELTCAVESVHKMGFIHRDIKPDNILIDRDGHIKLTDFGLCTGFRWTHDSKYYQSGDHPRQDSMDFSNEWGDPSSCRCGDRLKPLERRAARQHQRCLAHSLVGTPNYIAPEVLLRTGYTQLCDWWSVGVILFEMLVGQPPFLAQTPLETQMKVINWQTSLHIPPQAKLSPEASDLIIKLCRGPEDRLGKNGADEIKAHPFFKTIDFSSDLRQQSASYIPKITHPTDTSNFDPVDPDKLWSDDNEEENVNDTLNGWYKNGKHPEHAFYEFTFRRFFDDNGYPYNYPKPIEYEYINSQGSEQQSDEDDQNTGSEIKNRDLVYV
Procedure, shortened: as §1

[1] = Table 32, biochemical kinase assay

Sequence of AKT (P31749 whole entry): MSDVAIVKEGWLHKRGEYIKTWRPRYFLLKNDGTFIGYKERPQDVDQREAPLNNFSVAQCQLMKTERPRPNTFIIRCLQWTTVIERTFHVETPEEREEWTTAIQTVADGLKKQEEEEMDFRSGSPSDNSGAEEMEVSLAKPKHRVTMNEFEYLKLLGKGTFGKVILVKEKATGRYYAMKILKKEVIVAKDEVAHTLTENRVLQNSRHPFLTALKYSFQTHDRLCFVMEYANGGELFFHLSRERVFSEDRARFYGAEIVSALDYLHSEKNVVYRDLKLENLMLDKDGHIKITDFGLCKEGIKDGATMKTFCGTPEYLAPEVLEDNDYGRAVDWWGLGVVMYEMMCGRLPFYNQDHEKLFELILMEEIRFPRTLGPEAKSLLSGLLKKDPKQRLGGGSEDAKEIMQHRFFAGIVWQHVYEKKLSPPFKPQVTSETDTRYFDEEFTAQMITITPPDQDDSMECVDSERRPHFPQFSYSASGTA

SMILES: NCC(=O)NCC(O)(c1ccc(Cl)cc1)c1ccc(-c2ccnc3[nH]ccc23)cc1 (stereo not drawn) [Compound 1020, N-(2-(4-(1H-pyrrolo[2,3-b]pyridin-4-yl)phenyl)-2-(4-chlorophenyl)-2-hydroxyethyl)-2-aminoacetamide]
- IC50 (AKT; [1]): 1.4 nM
- IC50 (LATS2; [1]): 2.4 nM
- IC50 (LATS1; [1]): 3 nM

SMILES: O=C(CP(=O)(O)O)NCC(O)(c1ccc(Cl)cc1)c1ccc(-c2ccnc3[nH]ccc23)cc1 (stereo not drawn) [Compound 1022, (2-((2-(4-(1H-pyrrolo[2,3-b]pyridin-4-yl)phenyl)-2-(4-chlorophenyl)-2-hydroxyethyl)amino)-2-oxoethyl) phosphonic acid]
- IC50 (AKT; [1]): 3.1 nM
- IC50 (LATS2; [1]): 12 nM
- IC50 (LATS1; [1]): 9.6 nM

SMILES: O=C(NCC(O)(c1ccc(Cl)cc1)c1ccc(-c2ccnc3[nH]ccc23)cc1)[C@@H]1CCCN1 (stereo partly drawn) [Compound 1023, (2S)—N-(2-(4-(1H-pyrrolo[2,3-b]pyridin-4-yl)phenyl)-2-(4-chlorophenyl)-2-hydroxyethyl)pyrrolidine-2-carboxamide]
- IC50 (AKT; [1]): 9.2 nM
- IC50 (LATS2; [1]): 4.6 nM
- IC50 (LATS1; [1]): 3.4 nM

SMILES: O=C(NCC(O)(c1ccc(Cl)cc1)c1ccc(-c2ccnc3[nH]ccc23)cc1)[C@H]1CCCN1 (stereo partly drawn) [Compound 1024, (2R)-N-(2-(4-(1H-pyrrolo[2,3-b]pyridin-4-yl)phenyl)-2-(4-chlorophenyl)-2-hydroxyethyl)pyrrolidine-2-carboxamide]
- IC50 (AKT; [1]): 5.6 nM
- IC50 (LATS2; [1]): 2.4 nM
- IC50 (LATS1; [1]): 3.7 nM

SMILES: NCC(=O)NCC(=O)NCC(O)(c1ccc(Cl)cc1)c1ccc(-c2ccnc3[nH]ccc23)cc1 (stereo not drawn) [Compound 1025, N-(2-(4-(1H-pyrrolo[2,3-b]pyridin-4-yl)phenyl)-2-(4-chlorophenyl)-2-hydroxyethyl)-2-(2-aminoacetamido)acetamide]
- IC50 (AKT; [1]): 3.1 nM
- IC50 (LATS2; [1]): 4.5 nM
- IC50 (LATS1; [1]): 4.1 nM

SMILES: C[C@H](N)C(=O)NCC(O)(c1ccc(Cl)cc1)c1ccc(-c2ccnc3[nH]ccc23)cc1 (stereo partly drawn) [Compound 1026, (2S)-N-(2-(4-(1H-pyrrolo[2,3-b]pyridin-4-yl)phenyl)-2-(4-chlorophenyl)-2-hydroxyethyl)-2-aminopropanamide]
- IC50 (AKT; [1]): 1.2 nM
- IC50 (LATS2; [1]): 2.3 nM
- IC50 (LATS1; [1]): 3.8 nM

SMILES: CNCC(=O)NCC(O)(c1ccc(Cl)cc1)c1ccc(-c2ccnc3[nH]ccc23)cc1 (stereo not drawn) [Compound 1027, N-(2-(4-(1H-pyrrolo[2,3-b]pyridin-4-yl)phenyl)-2-(4-chlorophenyl)-2-hydroxyethyl)-2-(methylamino)acetamide]
- IC50 (AKT; [1]): 1.3 nM
- IC50 (LATS2; [1]): 3 nM
- IC50 (LATS1; [1]): 4.1 nM

SMILES: CC(C)(N)C(=O)NCC(O)(c1ccc(Cl)cc1)c1ccc(-c2ccnc3[nH]ccc23)cc1 (stereo not drawn) [Compound 1028, N-(2-(4-(1H-pyrrolo[2,3-b]pyridin-4-yl)phenyl)-2-(4-chlorophenyl)-2-hydroxyethyl)-2-amino-2-methylpropanamide]
- IC50 (AKT; [1]): 1.9 nM
- IC50 (LATS2; [1]): 2.4 nM
- IC50 (LATS1; [1]): 1.9 nM

SMILES: NCC(=O)NCC(O)(c1ccc(Cl)cc1)c1ccc(-c2ccnc3[nH]cc(F)c23)cc1 (stereo not drawn) [Compound 1029, 2-amino-N-(2-(4-chlorophenyl)-2-(4-(3-fluoro-1H-pyrrolo[2,3-b]pyridin-4-yl)phenyl)-2-hydroxyethyl)acetamide]
- IC50 (AKT; [1]): 0.7 nM
- IC50 (LATS2; [1]): 1.3 nM
- IC50 (LATS1; [1]): 2.6 nM

SMILES: CN(CC(O)(c1ccc(Cl)cc1)c1ccc(-c2ccnc3[nH]ccc23)cc1)C(=O)CN (stereo not drawn) [Compound 1030, N-(2-(4-(1H-pyrrolo[2,3-b]pyridin-4-yl)phenyl)-2-(4-chlorophenyl)-2-hydroxyethyl)-2-amino-N-methylacetamide]
- IC50 (AKT; [1]): 1.1 nM
- IC50 (LATS2; [1]): 5.1 nM
- IC50 (LATS1; [1]): 4.4 nM

SMILES: N#Cc1c[nH]c2nccc(-c3ccc(C4(O)CCNCC4)cc3)c12 [Compound 2001, 4-(4-(4-hydroxypiperidin-4-yl)phenyl)-1H-pyrrolo[2,3-b]pyridine-3-carbonitrile]
- IC50 (AKT; biochemical kinase inhibition): 278 nM
- IC50 (LATS2; biochemical kinase inhibition): 3.3 nM
- IC50 (LATS1; biochemical kinase inhibition): 3.3 nM

SMILES: CN[C@@H](CO)C(=O)N1C[C@@H](C)[C@](O)(c2c(C)cc(-c3ccnc4[nH]cc(C#N)c34)cc2F)[C@@H](C)C1 [Compound 2009, 4-(3-fluoro-4-((3S,4R,5R)-4-hydroxy-3,5-dimethyl-1-(methyl-L-seryl)piperidin-4-yl)-5-methylphenyl)-1H-pyrrolo[2,3-b]pyridine-3-carbonitrile]
- IC50 (AKT; biochemical kinase inhibition): 244 nM
- IC50 (LATS2; biochemical kinase inhibition): 2.5 nM
- IC50 (LATS1; biochemical kinase inhibition): 4.8 nM

SMILES: Cc1cc(-c2ccnc3[nH]cc(C#N)c23)ccc1[C@@]1(O)[C@H](C)CN(C(=O)[C@@H](C)N)C[C@@H]1C [Compound 2010, 4-(4-((3S,4S,5R)-1-(D-alanyl)-4-hydroxy-3,5-dimethylpiperidin-4-yl)-3-methylphenyl)-1H-pyrrolo[2,3-b]pyridine-3-carbonitrile]
- IC50 (AKT; biochemical kinase inhibition): 89.4 nM
- IC50 (LATS2; biochemical kinase inhibition): 8.5 nM
- IC50 (LATS1; biochemical kinase inhibition): 13.4 nM

SMILES: Cc1cc(-c2ccnc3[nH]cc(C#N)c23)cc(F)c1[C@@]1(O)[C@H](C)CN(C(=O)[C@@H]2CCCN2)C[C@@H]1C [Compound 2013, 4-(4-((3S,4S,5R)-1-(L-prolyl)-4-hydroxy-3,5-dimethylpiperidin-4-yl)-3-fluoro-5-methylphenyl)-1H-pyrrolo[2,3-b]pyridine-3-carbonitrile]
- IC50 (AKT; biochemical kinase inhibition): 330 nM
- IC50 (LATS2; biochemical kinase inhibition): 2.9 nM
- IC50 (LATS1; biochemical kinase inhibition): 5.7 nM

SMILES: Cc1cc(-c2ccnc3[nH]cc(C#N)c23)ccc1[C@@]1(O)[C@H](C)CN(C(=O)[C@H](N)CO)C[C@@H]1C [Compound 2016, 4-(4-((3S,4S,5R)-1-(D-seryl)-4-hydroxy-3,5-dimethylpiperidin-4-yl)-3-methylphenyl)-1H-pyrrolo[2,3-b]pyridine-3-carbonitrile]
- IC50 (AKT; biochemical kinase inhibition): 48.8 nM
- IC50 (LATS2; biochemical kinase inhibition): 6.4 nM
- IC50 (LATS1; biochemical kinase inhibition): 9.2 nM

SMILES: Cc1cc(-c2ccnc3[nH]cc(C#N)c23)cc(F)c1[C@@]1(O)[C@H](C)CN(C(=O)C(C)(C)N)C[C@@H]1C [Compound 2018, 4-(4-((3S,4s,5R)-1-(2-amino-2-methylpropanoyl)-4-hydroxy-3,5-dimethylpiperidin-4-yl)-3-fluoro-5-methylphenyl)-1H-pyrrolo[2,3-b]pyridine-3-carbonitrile]
- IC50 (AKT; biochemical kinase inhibition): 610 nM
- IC50 (LATS2; biochemical kinase inhibition): 7.2 nM
- IC50 (LATS1; biochemical kinase inhibition): 11.1 nM

From patent US20250361230A1, “LATS Inhibitors and Uses Thereof” (The USA, as Represented by the Secretary, Dept. of Heath …, priority 2022, published 2025)
